Here are results for 27 compounds from patent US10208059B2, “Heterocyclic modulators of HIF activity for treatment of disease” (Board of Regents, University of Texas System, priority 2012, dated 2019).

Usually IC50 stands for the concentration needed to halve the response being measured.

This assay deals with 293T-HRE-GFP-luc cells. Put plainly: Cell-based reporter assay for IC50 determinations. The note with it: hypoxia 6 hrs (1% O2), luminescence, read-out: IC50 Classification. On the procedure: Cell-Based Reporter Assay for IC50 Determinations
293T-HRE-GFP-luc cells were routinely maintained in DMEM media (high glucose version with GlutaMAX and HEPES, Gibco, catalog #10564) supplemented with 10% fetal bovine serum and 2 μg/mL puromycin (Invitrogen, catalog #A11138-03) using a humidified incubator (normoxia conditions consisting of 37° C., 5% CO2 and ambient O2).
In preparation for the reporter assay, cells were harvested and resuspended in DMEM media (high glucose version with GlutaMAX and HEPES) supplemented with 10% fetal bovine serum. Cells were inoculated into 384-well white Culturplates (Perkin Elmer catalog #6007680) at a density of 12,000 cells/well in a volume of 30 μL. The microplates were incubated overnight (approximately 17-19 hours) at 37° C. with 5% CO2 and ambient O2. Stock solutions of the test compounds were prepared in DMSO (Sigma, Catalog #D2650) and serially diluted 1:3 using DMSO. Compounds were additionally diluted (1:50) with culturemedium and 10 μL were added per well to the Culturplate. Following a 30 min. incubation under normoxia conditions, the plates were incubated in hypoxia for 6 hrs. (37° C., 5% CO2 and 1% O2). Steadylite Plus (Perkin Elmer, catalog #6016751) was then added (40 μL/well), the plates were mixed on an orbital shaker at room temperature in the dark for 15 min., and luminescence was measured using an Envision plate reader (Perkin Elmer). IC50 values were calculated using a four-parameter logistic curve fit. Results are shown below in Table 2; ND indicates no data.

As to `Cc1nc(-c2noc(-c3ccc(OC(F)(F)F)cc3)n2)nn1Cc1cccc(N2CCN(C)CC2)c1` [Example 56, 3-(5-Methyl-1-(3-(4-methylpiperazin-1-yl)benzyl)-1H-1,2,4-triazol-3-yl)-5-(4-(trifluoromethoxy)phenyl)-1,2,4-oxadiazole], the IC50 was below 100 nM.

Take `Cc1nc(-c2noc(-c3ccc(OC(F)(F)F)cc3)n2)nn1Cc1cccc(N2CCOCC2)c1` [Example 57, 4-(3-((5-Methyl-3-(5-(4-(trifluoromethoxy)phenyl)-1,2,4-oxadiazol-3-yl)-1H-1,2,4-triazol-1-yl)methyl)phenyl)morpholine]: the IC50 was below 100 nM.

Take `Cc1nc(-c2noc(-c3ccc(OC(F)(F)F)cc3)n2)nn1Cc1cccc(N(C)C)c1` [Example 58, N,N-Dimethyl-3-((5-methyl-3-(5-(4-(trifluoromethoxy)phenyl)-1,2,4-oxadiazol-3-yl)-1H-1,2,4-triazol-1-yl)methyl)aniline]: the IC50 was in the range of 100 to 1000 nM.

Consider `Cc1nc(-c2nc(-c3ccc(OC(F)(F)F)cc3)no2)nn1Cc1cccc(O)c1` [Example 59, 3-((5-Methyl-3-(3-(4-(trifluoromethoxy)phenyl)-1,2,4-oxadiazol-5-yl)-1H-1,2,4-triazol-1-yl)methyl)phenol], for which the IC50 was in the range of 100 to 1000 nM.

For the compound `COCCOc1cccc(Cn2nc(-c3nc(-c4ccc(OC(F)(F)F)cc4)no3)nc2C)c1` [Example 60, 5-(1-{[3-(2-Methoxyethoxy)phenyl]methyl}-5-methyl-1H-1,2,4-triazol-3-yl)-3-[4-(trifluoromethoxy)phenyl]-1,2,4-oxadiazole], the IC50 is below 100 nM.

Take `Cc1nc(-c2nc(-c3ccc(OC(F)(F)F)cc3)no2)nn1Cc1cccc(OCC(N)=O)c1` [Example 61, 2-{3-[(5-Methyl-3-{3-[4-(trifluoromethoxy)phenyl]-124-oxadiazol-5-yl}-1H-124-triazol-1-yl)methyl]phenoxy}acetamide]: the IC50 is below 100 nM.

In the case of `Cc1nc(-c2nc(-c3ccc(OC(F)(F)F)cc3)no2)nn1Cc1cccc(OCC(=O)N(C)C)c1` [Example 62, N N-Dimethyl-2-{3-[(5-methyl-3-{3-[4-(trifluoromethoxy)phenyl]-124-oxadiazol-5-yl}-1H-124-triazol-1-yl)methyl]phenoxy}acetamide], the IC50 was below 100 nM.

Consider `Cc1nc(-c2nc(-c3ccc(OC(F)(F)F)cc3)no2)nn1Cc1cccc(OC(C)C)c1` [Example 63, 5-(5-Methyl-1-{[3-(propan-2-yloxy)phenyl]methyl}-1H-1,2,4-triazol-3-yl)-3-[4-(trifluoromethoxy)phenyl]-1,2,4-oxadiazole], for which the IC50 was below 100 nM.

Turning to `CCOc1cccc(Cn2nc(-c3nc(-c4ccc(OC(F)(F)F)cc4)no3)nc2C)c1` [Example 64, 5-{1-[(3-Ethoxyphenyl)methyl]-5-methyl-1H-1,2,4-triazol-3-yl}-3-[4-(trifluoromethoxy)phenyl]-1,2,4-oxadiazole], the IC50 was below 100 nM.

Take `Cc1nc(-c2nc(-c3ccc(OC(F)(F)F)cc3)no2)nn1Cc1cccc(OCCO)c1` [Example 65, 2-{3-[(5-Methyl-3-{3-[4-(trifluoromethoxy)phenyl]-1,2,4-oxadiazol-5-yl}-1H-1,2,4-triazol-1-yl)methyl]phenoxy}ethan-1-ol]: the IC50 is below 100 nM.

On to `Cc1nc(-c2nc(-c3ccc(OC(F)(F)F)cc3)no2)nn1Cc1cccc(OCC#N)c1` [Example 66, 2-{3-[(5-Methyl-3-{3-[4-(trifluoromethoxy)phenyl]-1,2,4-oxadiazol-5-yl}-1H-1,2,4-triazol-1-yl)methyl]phenoxy}acetonitrile], for which the IC50 lay within 100 to 1000 nM.

On to `Cc1nc(-c2nc(-c3ccc(OC(F)(F)F)cc3)no2)nn1Cc1cccc(OCCNC(=O)OC(C)(C)C)c1` [Example 67, Tert-butyl N-(2-{3-[(5-methyl-3-{3-[4-(trifluoromethoxy)phenyl]-1,2,4-oxadiazol-5-yl}-1H-1,2,4-triazol-1-yl)methyl]phenoxy}ethyl)carbamate], for which the IC50 is below 100 nM.

In the case of `Cc1nc(-c2nc(-c3ccc(OC(F)(F)F)cc3)no2)nn1Cc1cccc(OC2COC2)c1` [Example 68, 5-(5-Methyl-1-{[3-(oxetan-3-yloxy)phenyl]methyl}-1H-1,2,4-triazol-3-yl)-3-[4-(trifluoromethoxy)phenyl]-1,2,4-oxadiazole], the IC50 is below 100 nM.

For `Cc1nc(-c2nc(-c3ccc(OC(F)(F)F)cc3)no2)nn1Cc1cccc(OC2CCOCC2)c1` [Example 69, 5-(5-Methyl-1-{[3-(oxan-4-yloxy)phenyl]methyl}-1H-1,2,4-triazol-3-yl)-3-[4-(trifluoromethoxy)phenyl]-1,2,4-oxadiazole], the 50% inhibitory concentration (IC50) was below 100 nM.

In the case of `Cc1nc(-c2nc(-c3ccc(OC(F)(F)F)cc3)no2)nn1Cc1cccc(OCCN)c1` [Example 70, 5-(1-{[3-(2-Aminoethoxy)phenyl]methyl}-5-methyl-1H-1,2,4-triazol-3-yl)-3-[4-(trifluoromethoxy)phenyl]-1,2,4-oxadiazole], the IC50 lay within 100 to 1000 nM.

As for `Cc1nc(-c2nc(-c3ccc(OC(F)(F)F)cc3)no2)nn1Cc1cccc(OCCCO)c1` [Example 71, 3-{3-[(5-Methyl-3-{3-[4-(trifluoromethoxy)phenyl]-1,2,4-oxadiazol-5-yl}-1H-1,2,4-triazol-1-yl)methyl]phenoxy}propan-1-ol], the IC50 was below 100 nM.

Consider `COC(C)(C)CCOc1cccc(Cn2nc(-c3nc(-c4ccc(OC(F)(F)F)cc4)no3)nc2C)c1` [Example 72, 5-(1-{[3-(3-Methoxy-3-methylbutoxy)phenyl]methyl}-5-methyl-1H-1,2,4-triazol-3-yl)-3-[4-(trifluoromethoxy)phenyl]-1,2,4-oxadiazole], for which the IC50 is below 100 nM.

With `Cc1nc(-c2nc(-c3ccc(OC(F)(F)F)cc3)no2)nn1Cc1cccc(OC2CCN(C)CC2)c1` [Example 73, 1-Methyl-4-{3-[(5-methyl-3-{3-[4-(trifluoromethoxy)phenyl]-1,2,4-oxadiazol-5-yl}-1H-1,2,4-triazol-1-yl)methyl]phenoxy}piperidine], the IC50 was below 100 nM.

Take `Cc1nc(-c2nc(-c3ccc(OC(F)(F)F)cc3)no2)nn1Cc1cccc(OCCCN(C)C)c1` [Example 74, Dimethyl(3-{3-[(5-methyl-3-{3-[4-(trifluoromethoxy)phenyl]-1,2,4-oxadiazol-5-yl}-1H-1,2,4-triazol-1-yl)methyl]phenoxy}propyl)amine]: the IC50 was below 100 nM.

As to `Cc1nc(-c2nc(-c3ccc(OC(F)(F)F)cc3)no2)nn1Cc1cc[nH]c(=O)c1` [Example 75, 4-[(5-Methyl-3-{3-[4-(trifluoromethoxy)phenyl]-1,2,4-oxadiazol-5-yl}-1H-1,2,4-triazol-1-yl)methyl]-1,2-dihydropyridin-2-one], the IC50 fell in the range of 100 to 1000 nM.

Turning to `Cc1nc(-c2nc(-c3ccc(OC(F)(F)F)cc3)no2)nn1Cc1ccn(CC(C)C)c(=O)c1` [Example 76a, 4-[(5-Methyl-3-{3-[4-(trifluoromethoxy)phenyl]-1,2,4-oxadiazol-5-yl}-1H-1,2,4-triazol-1-yl)methyl]-1-(2-methylpropyl)-1,2-dihydropyridin-2-one], the IC50 lay within 100 to 1000 nM.

As for `Cc1nc(-c2nc(-c3ccc(OC(F)(F)F)cc3)no2)nn1Cc1ccnc(OCC(C)C)c1` [Example 76b, 4-[(5-Methyl-3-{3-[4-(trifluoromethoxy)phenyl]-1,2,4-oxadiazol-5-yl}-1H-1,2,4-triazol-1-yl)methyl]-2-(2-methylpropoxy)pyridine], the IC50 was in the range of 100 to 1000 nM.

As for `Cc1nc(-c2nc(-c3ccc(OC(F)(F)F)cc3)no2)nn1Cc1ccc(=O)n(CC(C)C)c1` [Example 77a, 5-[(5-Methyl-3-{3-[4-(trifluoromethoxy)phenyl]-1,2,4-oxadiazol-5-yl}-1H-1,2,4-triazol-1-yl)methyl]-1-(2-methylpropyl)-1,2-dihydropyridin-2-one], the IC50 is below 100 nM.

Consider `Cc1nc(-c2nc(-c3ccc(OC(F)(F)F)cc3)no2)nn1Cc1ccc(OCC(C)C)nc1` [Example 77b, 5-[(5-Methyl-3-{3-[4-(trifluoromethoxy)phenyl]-1,2,4-oxadiazol-5-yl}-1H-1,2,4-triazol-1-yl)methyl]-2-(2-methylpropoxy)pyridine], for which the IC50 fell in the range of 100 to 1000 nM.

`Cc1nc(-c2nc(-c3ccc(OC(F)(F)F)cc3)no2)nn1Cc1cccc(N)c1` [Example 78, 3-[(5-Methyl-3-{3-[4-(trifluoromethoxy)phenyl]-1,2,4-oxadiazol-5-yl}-1H-1,2,4-triazol-1-yl)methyl]aniline]: the IC50 was below 100 nM.

Take `Cc1nc(-c2nc(-c3ccc(OC(F)(F)F)cc3)no2)nn1Cc1cccc(S(=O)(=O)N2CCN(C)CC2)c1` [Example 79, 1-Methyl-4-{3-[(5-methyl-3-{3-[4-(trifluoromethoxy)phenyl]-1,2,4-oxadiazol-5-yl}-1H-1,2,4-triazol-1-yl)methyl]benzenesulfonyl}piperazine]: the IC50 is below 100 nM.

`Cc1nc(-c2nc(-c3ccc(OC(F)(F)F)cc3)no2)nn1Cc1cccc(N2CCNCC2)c1` [Example 81, 1-{3-[(5-Methyl-3-{3-[4-(trifluoromethoxy)phenyl]-1,2,4-oxadiazol-5-yl}-1H-1,2,4-triazol-1-yl)methyl]phenyl}piperazine]: the IC50 is below 100 nM.
